Test results as given in patent US10112935B2, “Indazolyl thiadiazolamines and related compounds for inhibition of Rho-associated protein kinase and the treatment of disease” (Lycera Corporation, priority 2015, dated 2018).

Key:
ROCK [1] = details: porcine, IL-1 beta-induced; cited from earlier work
ROCK [2] = details: rat stroke model; cited from earlier work
[3] = molecular target: GST-tagged human ROCK1 catalytic domain 1-477 (Homo sapiens (Human), UniProt Q13464); assay: Inhibition of Rho-associated protein kinase isoform 1 (LANCE Ultra ULight-CREBtide FRET kinase assay); type: biochemical; details: 30 μM was the highest concentration analyzed
Method in brief: (§1)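 Baculovirus-expressed kinase phosphorylated ULight-CREBtide for 90 min at room temperature before the reaction was stopped with 10 mM EDTA. Phospho-substrate was detected by TR-FRET with 1 nM Europium-anti-phospho-CREB (Ser133) antibody after 60 min at room temperature.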

[4] = molecular target: GST-tagged human ROCK2 catalytic domain 1-553 (Homo sapiens (Human), UniProt O75116); assay: Inhibition of Rho-associated protein kinase isoform 2 (LANCE Ultra ULight-CREBtide FRET kinase assay); type: biochemical; details: for IC50: 30 μM was the highest concentration analyzed; for Selectivity for ROCK2 over ROCK1 (IC50 ROCK1 / IC50 ROCK2): selectivity ROCK2 vs ROCK1
Method in brief: as §1

GST-tagged human ROCK2 catalytic domain 1-553, sequence (O75116 1-553): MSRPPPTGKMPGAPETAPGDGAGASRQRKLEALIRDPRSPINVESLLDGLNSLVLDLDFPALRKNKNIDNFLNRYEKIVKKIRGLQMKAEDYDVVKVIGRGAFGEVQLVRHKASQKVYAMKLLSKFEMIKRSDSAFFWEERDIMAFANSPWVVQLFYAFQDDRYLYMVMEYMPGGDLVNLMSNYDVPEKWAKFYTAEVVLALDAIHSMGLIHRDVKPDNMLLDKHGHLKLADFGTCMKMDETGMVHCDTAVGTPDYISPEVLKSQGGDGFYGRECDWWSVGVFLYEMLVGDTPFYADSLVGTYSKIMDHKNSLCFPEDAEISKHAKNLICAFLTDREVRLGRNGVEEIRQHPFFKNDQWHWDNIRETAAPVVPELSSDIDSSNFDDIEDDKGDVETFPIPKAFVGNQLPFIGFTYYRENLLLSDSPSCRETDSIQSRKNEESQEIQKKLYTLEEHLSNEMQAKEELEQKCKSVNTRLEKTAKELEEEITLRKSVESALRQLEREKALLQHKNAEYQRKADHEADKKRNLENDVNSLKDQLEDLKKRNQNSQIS
GST-tagged human ROCK1 catalytic domain 1-477, sequence (Q13464 1-477): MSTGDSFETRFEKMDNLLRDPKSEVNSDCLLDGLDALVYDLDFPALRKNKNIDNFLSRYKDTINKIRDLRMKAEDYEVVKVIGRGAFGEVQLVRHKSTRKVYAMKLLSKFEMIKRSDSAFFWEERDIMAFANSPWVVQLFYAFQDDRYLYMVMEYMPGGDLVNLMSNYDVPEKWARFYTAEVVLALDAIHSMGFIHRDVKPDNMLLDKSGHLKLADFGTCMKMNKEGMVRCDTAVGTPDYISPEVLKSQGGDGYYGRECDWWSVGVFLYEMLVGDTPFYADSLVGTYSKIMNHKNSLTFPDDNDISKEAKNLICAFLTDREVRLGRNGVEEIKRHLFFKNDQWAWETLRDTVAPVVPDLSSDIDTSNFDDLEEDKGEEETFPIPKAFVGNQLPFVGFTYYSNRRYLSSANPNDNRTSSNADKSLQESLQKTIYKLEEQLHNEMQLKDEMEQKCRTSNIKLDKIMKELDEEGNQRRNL

| IC50 [3] [µM] | IC50 [4] [µM] | Selectivity for ROCK2 over ROCK1 (IC50 ROCK1 / IC50 ROCK2) [4] | SMILES | coronary stenosis (ROCK [1]) | infarct size and neurologic deficit (ROCK [2]) |
| --- | --- | --- | --- | --- | --- |
| > 30 | < 1 | >100 | Cn1c(C2CC2)nc2c(-c3nnc(Nc4ccc5[nH]ncc5c4)s3)cccc21 [Example 56G] | – | – |
| > 30 | < 1 | >100 | O=C1Cc2c(cccc2-c2nnc(Nc3ccc4[nH]ncc4c3Cl)s2)N1 [Example 56D] | – | – |
| > 30 | < 1 | >100 | Clc1c(Nc2nnc(-c3cccn4cc(-c5ccc(Br)cc5)nc34)s2)ccc2[nH]ncc12 [Example 52E] | – | – |
| > 30 | < 1 | >100 | Fc1cc(-c2ncco2)cc(-c2nnc(Nc3ccc4[nH]ncc4c3Cl)s2)c1 [Example 46J] | – | – |
| < 1 | < 1 | >5 | Cc1coc(-c2cccc(-c3nnc(Nc4ccc5[nH]ncc5c4Cl)s3)c2)n1 [Example 46C] | – | – |
| > 30 | < 1 | >100 | Cc1coc(-c2cc(F)cc(-c3nnc(Nc4ccc5[nH]ncc5c4Cl)s3)c2)n1 [Example 46D] | – | – |
| > 30 | < 1 | >100 | CC(=O)Nc1cc(-c2nnc(Nc3ccc4[nH]ncc4c3Cl)s2)ccc1-c1ncco1 [Example 48P] | – | – |
| 1 to 15 | 1 to 15 | – | O=[N+]([O-])c1cccc(-c2nnc(Nc3ccc4[nH]ncc4c3)s2)c1 [Example 75O] | – | – |
| > 30 | < 1 | >100 | Cc1cccc(-c2cccc(-c3nnc(Nc4ccc5[nH]ncc5c4Cl)s3)c2)n1 [Example 75R] | – | – |
| < 1 | < 1 | >5 | Cn1cc(C(=O)Nc2cc(C(=O)O)cc(-c3nnc(Nc4ccc5[nH]ncc5c4Cl)s3)c2)cn1 [Example 48AC] | – | – |
| > 30 | < 1 | >100 | O=C(O)c1ccc(-c2cn3cccc(-c4nnc(Nc5ccc6[nH]ncc6c5Cl)s4)c3n2)cc1 [Example 50E] | – | – |
| < 1 | < 1 | >5 | CC(=O)Nc1ccc(C)c(-c2nnc(Nc3ccc4[nH]ncc4c3Cl)s2)c1.O=C(O)C(F)(F)F [Example 48I] | – | – |
| < 1 | < 1 | <5 | CC(C)c1cn2cccc(-c3nnc(Nc4ccc5[nH]ncc5c4Cl)s3)c2n1 [Example 52B] | – | – |
| < 1 | < 1 | >5 | CCc1cn2cccc(-c3nnc(Nc4ccc5[nH]ncc5c4Cl)s3)c2n1 [Example 52D] | – | – |
| > 30 | < 1 | >100 | FC(F)(F)c1cn2cccc(-c3nnc(Nc4ccc5[nH]ncc5c4Cl)s3)c2n1 [Example 52C] | – | – |
| 1 to 15 | < 1 | >5 | c1csc(-c2cncc(-c3nnc(Nc4ccc5[nH]ncc5c4)s3)c2)c1 [Example 39D] | – | – |

The next lines start with the compound.

| SMILES | IC50 [3] [µM] | IC50 [4] [µM] | Selectivity for ROCK2 over ROCK1 (IC50 ROCK1 / IC50 ROCK2) [4] | coronary stenosis (ROCK [1]) | infarct size and neurologic deficit (ROCK [2]) |
| --- | --- | --- | --- | --- | --- |
| O=S(=O)(c1cccc2cnccc12)N1CCCNCC1 [fasudil] | – | – | – | progressively reduce coronary stenosis | reduce both the infarct size and neurologic deficit |
| c1cc(-c2cnco2)cc(-c2nnc(Nc3ccc4[nH]ncc4c3)s2)c1 [Example A-26] | > 30 | > 30 | <5 | – | – |
| OCCN(c1ccc2[nH]ncc2c1)c1nnc(-c2cnccn2)s1 [Example A-12] | > 30 | > 30 | <5 | – | – |
| Nc1ccnc(-c2nnc(Nc3ccc4[nH]ncc4c3)s2)c1.O=C(O)C(F)(F)F [Example 35CT] | > 30 | < 1 | >5 | – | – |
| c1cc2[nH]ncc2cc1Nc1nnc(C2CNCCN2)s1 (stereo not drawn) [Example A-29] | 1 to 15 | 1 to 15 | <5 | – | – |
| O=C(Nc1cccc(-c2nnc(Nc3ccc4[nH]ncc4c3Cl)s2)c1)c1cnccn1 [Example 35BR] | > 30 | < 1 | >100 | – | – |
| C=Cc1c(Nc2nnc(-c3cccc(NC(C)=O)c3)s2)ccc2[nH]ncc12.O=C(O)C(F)(F)F [Example 35K] | 1 to 15 | < 1 | >5 | – | – |
| CC1CCCCC1C(=O)Nc1cccc(-c2nnc(Nc3ccc4[nH]ncc4c3Cl)s2)c1 (stereo not drawn) [Example 35H] | 1 to 15 | < 1 | >5 | – | – |
| O=C(O)Cn1cc(C(=O)Nc2cc(F)c(F)c(-c3nnc(Nc4ccc5[nH]ncc5c4)s3)c2)cn1 [Example 35AY] | > 30 | < 1 | >75 | – | – |
| CC(C(=O)Nc1cc(-c2nnc(Nc3ccc4[nH]ncc4c3Cl)s2)ccn1)c1ccc(F)cc1 (stereo not drawn) [Example 34, N-(4-(5-((4-Chloro-1H-indazol-5-yl)amino)-1,3,4-thiadiazol-2-yl)pyridin-2-yl)-2-(4-fluorophenyl)propanamide] | < 1 | < 1 | >50 | – | – |
| O=C(Cc1ccc(F)cc1)Nc1cc(-c2nnc(Nc3ccc4[nH]ncc4c3Cl)s2)ccn1 [Example 35G] | < 1 | < 1 | >5 | – | – |
| CC(=O)Cc1cccc(-c2nnc(Nc3ccc4[nH]ncc4c3Cl)s2)c1 [Example 35AF] | 1 to 15 | < 1 | >5 | – | – |
| CC(C)(C)CC(=O)Nc1cccc(-c2nnc(Nc3ccc4[nH]ncc4c3Cl)s2)c1 [Example 35M] | 1 to 15 | < 1 | >5 | – | – |
| CC(=O)c1cc(-c2nnc(Nc3ccc4[nH]ncc4c3Cl)s2)ccn1 [Example 35CV] | 1 to 15 | < 1 | >50 | – | – |
| O=C(Cc1ccc(F)cc1)Nc1cccc(-c2nnc(Nc3ccc4[nH]ncc4c3Cl)s2)c1 [Example 35BO] | < 1 | < 1 | >50 | – | – |
| CN(C)CC(=O)Nc1cncc(-c2nnc(Nc3ccc4[nH]ncc4c3)s2)c1 [Example A-3] | 1 to 15 | < 1 | <5 | – | – |
| CN1CCN(c2cccc(-c3nnc(Nc4ccc5[nH]ncc5c4Cl)s3)c2)C(=O)C1 [Example 42, 1-(3-(5-((4-Chloro-1H-indazol-5-yl)amino)-1,3,4-thiadiazol-2-yl)phenyl)-4-methylpiperazin-2-one] | 1 to 15 | 1 to 15 | >5 | – | – |
| NCCn1cc(C(=O)Nc2cccc(-c3nnc(Nc4ccc5[nH]ncc5c4)s3)c2)cn1 [Example 35CE] | < 1 | < 1 | >5 | – | – |
| CC(C)C(=O)Nc1cccc(-c2nnc(Nc3ccc4[nH]ncc4c3Cl)s2)c1 [Example 35V] | < 1 | < 1 | >5 | – | – |
| c1cnc(-c2nnc(Nc3ccc4[nH]ncc4c3)s2)cn1 [Example A-25] | > 30 | 1 to 15 | >5 | – | – |
| Cn1cc(C(=O)Nc2ccc(-c3nnc(Nc4ccc5[nH]ncc5c4)s3)cc2)cn1 [Example A-27] | > 30 | > 30 | <5 | – | – |
| CC(=O)Nc1cc(-c2nnc(Nc3ccc4[nH]ncc4c3Cl)s2)ccn1.O=C(O)C(F)(F)F [Example 35AE] | < 1 | < 1 | <5 | – | – |
| Cn1cc(C(=O)Nc2cc(-c3nnc(Nc4ccc5[nH]ncc5c4)s3)ccn2)cn1.O=C(O)C(F)(F)F [Example 35BY] | > 30 | – | >100 | – | – |
| O=C(Nc1cc(-c2nnc(Nc3ccc4[nH]ncc4c3)s2)ccn1)c1c[nH]cn1 [Example A-32] | > 30 | < 1 | >100 | – | – |
| CC(C)(C)C(=O)Nc1cccc(-c2nnc(Nc3ccc4[nH]ncc4c3Cl)s2)c1 [Example 35O] | < 1 | < 1 | >5 | – | – |
| c1cc(-c2cn[nH]c2)cc(-c2nnc(Nc3ccc4[nH]ncc4c3)s2)c1 [Example A-17] | > 30 | < 1 | >100 | – | – |
| c1cc2[nH]ncc2cc1Nc1nnc(N2CCNCC2)s1 [Example A-48] | 1 to 15 | 1 to 15 | <5 | – | – |
| c1cc(-c2nnco2)cc(-c2nnc(Nc3ccc4[nH]ncc4c3)s2)c1 [Example A-6] | > 30 | > 30 | <5 | – | – |
| O=C(Nc1cncc(-c2nnc(Nc3ccc4[nH]ncc4c3)s2)c1)c1c[nH]cn1 [Example A-37] | > 30 | < 1 | >100 | – | – |
| COCCn1ccnc1-c1cccc(-c2nnc(Nc3ccc4[nH]ncc4c3Cl)s2)c1.O=C(O)C(F)(F)F [Example 44, N-(4-Chloro-1H-indazol-5-yl)-5-(3-(1-(2-methoxyethyl)-1H-imidazol-2-yl)phenyl)-1,3,4-thiadiazol-2-amine 2,2,2-trifluoroacetic Acid Solvate] | < 1 | < 1 | >5 | – | – |
